In the supplement of paper PMC10307832:

What was measured:
Test in all cases: relative viability (nuclei count vs DMSO), 5 days (fraction); higher = more cells survive
NCI-H322M = system: NCI-H322M
How it was run: (§1)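 A single step with final 0.05% Triton X-100, 1% formaldehyde and 1 ug/ml Hoechst fixed the cells and stained nuclei 5 days after treatment. Lung cancer cell lines in 1536-well plates had been treated by pin tool the day after seeding with one drug alone or a fixed anchor-drug dose plus five library-drug doses (not always all listed) in √10 steps, and nuclei were counted on 4× images. Relative viability is the ratio of nuclei in treated wells to nuclei in vehicle wells, taken as the median of duplicate plates.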

PC-14 = system: PC-14
How it was run: as §1

SW 1573 = system: SW 1573
How it was run: as §1

NCI-H2085 = system: NCI-H2085
How it was run: as §1

NCI-H647 = system: NCI-H647
How it was run: as §1

LXF-289 = system: LXF-289
How it was run: as §1

NCI-H661 = system: NCI-H661
How it was run: as §1

NCI-H2009 = system: NCI-H2009
How it was run: as §1

LCLC-97TM1 = system: LCLC-97TM1
How it was run: as §1

NCI-H1993 = system: NCI-H1993
How it was run: as §1

NCI-H2023 = system: NCI-H2023
How it was run: as §1

NCI-H1734 = system: NCI-H1734
How it was run: as §1

HOP-62 = system: HOP-62
How it was run: as §1

NCI-H727 = system: NCI-H727
How it was run: as §1

NCI-H2126 = system: NCI-H2126
How it was run: as §1

EMC-BAC-2 = system: EMC-BAC-2
How it was run: as §1

H3255 = system: H3255
How it was run: as §1

NCI-H2347 = system: NCI-H2347
How it was run: as §1

NCI-H1915 = system: NCI-H1915
How it was run: as §1

EPLC-272H = system: EPLC-272H
How it was run: as §1

SK-LU-1 = system: SK-LU-1
How it was run: as §1

`COc1cc2nccc(Oc3ccc(NC(=O)Nc4cc(C)on4)c(Cl)c3)c2cc1OC` [Tivozanib] + O=C(c1cc(Cc2n[nH]c(=O)c3ccccc23)ccc1F)N1CCN(C(=O)C2CC2)CC1 [Olaparib] (partner 8 µM) gave a relative viability (NCI-H322M; first compound 0.005 µM) of 0.656, a relative viability (NCI-H322M; first compound 0.01581 µM) of 0.811 and a relative viability (NCI-H322M; first compound 0.05 µM) of 0.755. The relative viability (NCI-H322M; first compound 0.1581 µM) was 0.72, the relative viability (NCI-H322M; first compound 0.5 µM) was 0.714 and the relative viability (PC-14; first compound 0.005 µM) was 0.28. The relative viability (PC-14; first compound 0.01581 µM) was 0.316, the relative viability (PC-14; first compound 0.05 µM) was 0.262 and the relative viability (PC-14; first compound 0.1581 µM) was 0.376. It also gave a relative viability (PC-14; first compound 0.5 µM) of 0.306, a relative viability (SW 1573; first compound 0.005 µM) of 0.443 and a relative viability (SW 1573; first compound 0.01581 µM) of 0.416. The relative viability (SW 1573; first compound 0.05 µM) was 0.434, the relative viability (SW 1573; first compound 0.1581 µM) was 0.506 and the relative viability (SW 1573; first compound 0.5 µM) was 0.446. For the same molecule, the relative viability (NCI-H2085; first compound 0.005 µM) was 0.712, the relative viability (NCI-H2085; first compound 0.01581 µM) was 0.848 and the relative viability (NCI-H2085; first compound 0.05 µM) was 0.876. For the same molecule, the relative viability (NCI-H2085; first compound 0.1581 µM) was 0.946, the relative viability (NCI-H2085; first compound 0.5 µM) was 0.734 and the relative viability (NCI-H647; first compound 0.005 µM) was 0.505. For the same molecule, the relative viability (NCI-H647; first compound 0.01581 µM) was 0.529, the relative viability (NCI-H647; first compound 0.05 µM) was 0.63 and the relative viability (NCI-H647; first compound 0.1581 µM) was 0.56. For the same molecule, the relative viability (NCI-H647; first compound 0.5 µM) was 0.437, the relative viability (LXF-289; first compound 0.005 µM) was 0.984 and the relative viability (LXF-289; first compound 0.01581 µM) was 0.994. For the same molecule, the relative viability (LXF-289; first compound 0.05 µM) was 1.09, the relative viability (LXF-289; first compound 0.1581 µM) was 1.13 and the relative viability (LXF-289; first compound 0.5 µM) was 0.99. The relative viability (NCI-H661; first compound 0.005 µM) was 0.703, the relative viability (NCI-H661; first compound 0.01581 µM) was 0.708 and the relative viability (NCI-H661; first compound 0.05 µM) was 0.741. It also gave a relative viability (NCI-H661; first compound 0.1581 µM) of 0.77, a relative viability (NCI-H661; first compound 0.5 µM) of 0.699 and a relative viability (NCI-H2009; first compound 0.005 µM) of 0.655. The relative viability (NCI-H2009; first compound 0.01581 µM) was 0.703, the relative viability (NCI-H2009; first compound 0.05 µM) was 0.751 and the relative viability (NCI-H2009; first compound 0.1581 µM) was 0.714. It also gave a relative viability (NCI-H2009; first compound 0.5 µM) of 0.542, a relative viability (LCLC-97TM1; first compound 0.005 µM) of 0.35 and a relative viability (LCLC-97TM1; first compound 0.01581 µM) of 0.34. For the same molecule, the relative viability (LCLC-97TM1; first compound 0.05 µM) was 0.321, the relative viability (LCLC-97TM1; first compound 0.1581 µM) was 0.427 and the relative viability (LCLC-97TM1; first compound 0.5 µM) was 0.436. It also gave a relative viability (NCI-H1993; first compound 0.005 µM) of 0.849, a relative viability (NCI-H1993; first compound 0.01581 µM) of 1.03 and a relative viability (NCI-H1993; first compound 0.05 µM) of 0.988. It also gave a relative viability (NCI-H1993; first compound 0.1581 µM) of 0.692, a relative viability (NCI-H1993; first compound 0.5 µM) of 1.1 and a relative viability (NCI-H2023; first compound 0.005 µM) of 0.469. For the same molecule, the relative viability (NCI-H2023; first compound 0.01581 µM) was 0.476, the relative viability (NCI-H2023; first compound 0.05 µM) was 0.454 and the relative viability (NCI-H2023; first compound 0.1581 µM) was 0.481. It also gave a relative viability (NCI-H2023; first compound 0.5 µM) of 0.454, a relative viability (NCI-H1734; first compound 0.005 µM) of 0.716 and a relative viability (NCI-H1734; first compound 0.01581 µM) of 0.6. It also gave a relative viability (NCI-H1734; first compound 0.05 µM) of 0.743, a relative viability (NCI-H1734; first compound 0.1581 µM) of 0.564 and a relative viability (NCI-H1734; first compound 0.5 µM) of 0.609. For the same molecule, the relative viability (HOP-62; first compound 0.005 µM) was 0.472, the relative viability (HOP-62; first compound 0.01581 µM) was 0.405 and the relative viability (HOP-62; first compound 0.05 µM) was 0.324. It also gave a relative viability (HOP-62; first compound 0.1581 µM) of 0.537, a relative viability (HOP-62; first compound 0.5 µM) of 0.37 and a relative viability (NCI-H727; first compound 0.005 µM) of 0.678. It also gave a relative viability (NCI-H727; first compound 0.01581 µM) of 0.787, a relative viability (NCI-H727; first compound 0.05 µM) of 0.823 and a relative viability (NCI-H727; first compound 0.1581 µM) of 0.786. The relative viability (NCI-H727; first compound 0.5 µM) was 0.74, the relative viability (NCI-H2126; first compound 0.005 µM) was 0.954 and the relative viability (NCI-H2126; first compound 0.01581 µM) was 0.907. For the same molecule, the relative viability (NCI-H2126; first compound 0.05 µM) was 1, the relative viability (NCI-H2126; first compound 0.1581 µM) was 0.845 and the relative viability (NCI-H2126; first compound 0.5 µM) was 0.899. For the same molecule, the relative viability (EMC-BAC-2; first compound 0.005 µM) was 0.492, the relative viability (EMC-BAC-2; first compound 0.01581 µM) was 0.543 and the relative viability (EMC-BAC-2; first compound 0.05 µM) was 0.469. It also gave a relative viability (EMC-BAC-2; first compound 0.1581 µM) of 0.472, a relative viability (EMC-BAC-2; first compound 0.5 µM) of 0.358 and a relative viability (H3255; first compound 0.005 µM) of 0.544. The relative viability (H3255; first compound 0.01581 µM) was 0.56, the relative viability (H3255; first compound 0.05 µM) was 0.541 and the relative viability (H3255; first compound 0.1581 µM) was 0.602. The relative viability (H3255; first compound 0.5 µM) was 0.513, the relative viability (NCI-H2347; first compound 0.005 µM) was 0.566 and the relative viability (NCI-H2347; first compound 0.01581 µM) was 0.65. For the same molecule, the relative viability (NCI-H2347; first compound 0.05 µM) was 0.608, the relative viability (NCI-H2347; first compound 0.1581 µM) was 0.638 and the relative viability (NCI-H2347; first compound 0.5 µM) was 0.512. The relative viability (NCI-H1915; first compound 0.005 µM) was 0.255, the relative viability (NCI-H1915; first compound 0.01581 µM) was 0.279 and the relative viability (NCI-H1915; first compound 0.05 µM) was 0.286. The relative viability (NCI-H1915; first compound 0.1581 µM) was 0.291, the relative viability (NCI-H1915; first compound 0.5 µM) was 0.206 and the relative viability (EPLC-272H; first compound 0.005 µM) was 0.63. The relative viability (EPLC-272H; first compound 0.01581 µM) was 0.969, the relative viability (EPLC-272H; first compound 0.05 µM) was 0.741 and the relative viability (EPLC-272H; first compound 0.1581 µM) was 0.783. It also gave a relative viability (EPLC-272H; first compound 0.5 µM) of 0.659, a relative viability (SK-LU-1; first compound 0.005 µM) of 0.465 and a relative viability (SK-LU-1; first compound 0.01581 µM) of 0.474. For the same molecule, the relative viability (SK-LU-1; first compound 0.05 µM) was 0.528, the relative viability (SK-LU-1; first compound 0.1581 µM) was 0.384 and the relative viability (SK-LU-1; first compound 0.5 µM) was 0.464.
